# Assay results from US11350582B2, “Plant varieties by application of endocides” (Stephen F. Austin State University, priority 2015, dated 2022).
# Where two headings read alike, the source gives them in different places.
# Columns and labels:
# Salvinia molesta = assay: Greenhouse spray test on giant salvinia, living biomass; type: in vivo; conditions: for type of new growth / decrease of living biomass weight compared to the water control: 1% concentration; for type of new growth: compound alone; for decrease of living biomass weight compared to the water control: nine days after the treatment; for Living Biomass (mean ± s.d.): 10 mL spray on three type III plants per container, day nine
# Description: General Experimental Procedure: Observations of giant salvinia growth in a greenhouse were performed under 28 different treatment conditions and control conditions with NANOPURE™ water or 0.5% DYNE-AMIC® (methyl esters of C16-C18 fatty acids, polyalkyleneoxide modified polydimethylsiloxane, and alkylphenol ethoxylate 99%, (Helena, Collierville, Tenn., United States)) (v:v).
# Materials—4-hydroxybenzoic acid (>95%, HPLC analysis) and 3,4-dihydroxybenzoic acid (>95%) were isolated from S. molesta matter using the method as described in (Li, Wang et al. 2013). Ethylparaben (>99%) was purchased from a commercial source. Each of 4-hydroxybenzoic acid, 3,4-dihydroxybenzoic acid, and ethylparaben were prepared as 50 mL experimental solutions with NANOPURE™ water at the concentration of 0.5, 1.0, 1.5, and 2.0%, respectively. 0.5, 1.0, 1.5, and 2.0% 4-hydroxybenzoic acid, 3,4-dihydroxybenzoic acid, and ethylparaben with 0.5% surfactant DYNE-AMIC® was also prepared as 50 mL experimental solutions with NANOPURE™ water. Mixtures of 4-hydroxybenzoic acid with 3,4-dihydroxybenzoic acid (2:1, w:w) were prepared as 50 mL experimental solutions with NANOPURE™ water at the total concentration of 0.5, 1.0, and 1.5%, respectively. 3,4-dihydroxybenzoic acid was mixed with ethylparaben (2:1, w:w) and prepared as 50 mL experimental solution with NANOPURE™ water at the total concentration of 0.5, 1.0, and 1.5%, respectively.
# Bioassay—For each treatment, a total of nine healthy and untreated living plants of S. molesta (type III, the biomass of three plants weighs approximately 10 g) were cultured in tap water in three plastic containers severing as three replications (14×15 cm, 0.68 L) with three plants each in a greenhouse (30° C. during the day time and 20° C. at night). The three plants in each of the three containers per treatment were sprayed with 10 mL NANOPURE™ water, 0.5% DYNE-AMIC®, or the experimental solution. Plant growth and survival status were documented and photographed in each treatment on day nine after the treatment. Pairwise comparisons for all treatments (including Control) in living biomass were made using Tukey test at alpha=0.05, which was done using SAS (SAS 9.4).
# Azolla caroliniana = assay: Greenhouse spray test on Carolina mosquito fern; type: in vivo; conditions: 0.5% concentration; 10 mL spray; fifth day
# Description: 4-Hydroxybenzoic and 3,4-dihydroxybenzoic acids were also tested against Carolina mosquito fern (Azolla caroliniana Willd.) (family Azollaceae). Six containers (14×15 cm, 0.68 L) with full cover of A. caroliniana were included in the tests: two without any treatments as controls, two were sprayed with 10 mL 0.5% 4-hydroxybenzoic acid each, and the others were sprayed with 10 mL 0.5% 3,4-dihydroxybenzoic acid each. Plant growth and survival status were documented and photographed in each treatment on the fifth day after the treatment.
# S. molesta [1] = assay: Phytotoxic analysis by pipet application on upper or lower leaf surface; type: in vivo, Salvinia molesta; conditions: Salvinia molesta, topical, 72 h
# Description: General Experimental Procedure: 4-Hydroxybenzoic and 3,4-dihydroxybenzoic acids and 14 of their analogs were purchased commercially. Each of 16 compounds were prepared as 5 mL experimental solutions with NANOPURE™ water at 1% concentration. A total of 102 healthy and untreated living type III plants of S. molesta (approximately 10 g in fresh weight each) were cultured and tested in 17 plastic containers (23×23 cm, 2.37 L) with six plants in each container in a greenhouse (30° C. during the day time and 20° C. at night). The first container served as the controls without any treatment, the plants in each of the other 16 containers were treated by one of the 16 testing compounds, respectively. The plants in each container were randomly classified into two groups evenly. For each plant in the first group, 10 μL of 1% experimental solution was applied by pipet on the upper surface of each blade of the six pairs of large floating leaves close to the terminal bud. For each plant in the second group, 10 μL of 1% experimental solution was applied by pipet on the lower surface of each blade of the six pairs of large floating leaves close to the terminal bud. The leaf surfaces were examined for damage and analyzed 72 hrs after the treatments.
# S. molesta [2] = assay: Mutation induction in giant salvinia by spray, greenhouse (Example 12); type: in vivo, Salvinia molesta
# Description: General Experimental Procedure: 4-hydroxybenzoic acid (>95%, HPLC analysis) and 3,4-dihydroxybenzoic acid (>95%) were isolated from S. molesta matter by using the method as described in Li, Wang et al. 2013. 4-Hydroxybenzoic and 3,4-dihydroxybenzoic acids were prepared as 50 mL experimental solution with NANOPURE™ water at eight concentrations, 0.015, 0.031, 0.063, 0.125, 0.25, 0.5, 1, and 2%, respectively.
# In each of 17 containers (14×15 cm, 0.68 L each), nine healthy and untreated living plants of S. molesta were cultured in tap water in a greenhouse (30° C. during the day time and 20° C. at night). The nine plants included three type I plants (approximately 1 g in fresh weight per plant), three type II plants (approximately 2 g per plant), and three type III plants (approximately 4 g per plant). The plants in each container were sprayed with 10 mL NANOPURE™ water or an experimental compound at various concentrations. Plant growth, morphological variation, and survival status were documented and photographed in each treatment for six weeks after the treatment. Then any new developed plants in each container were transferred into a container with new water for 10 weeks of culture observations.
# dihuang = conditions: in vivo; cited from earlier work
# [3] = 2% solution, 10 mL spray on nine plants (types I, II, III), six weeks
Compound,type of new growth (Salvinia molesta),decrease of living biomass weight compared to the water control (Salvinia molesta) [%],Living Biomass (mean ± s.d.) (Salvinia molesta; total concentration 0.5%) [g],Living Biomass (mean ± s.d.) (Salvinia molesta; total concentration 1.0%) [g],Living Biomass (mean ± s.d.) (Salvinia molesta; total concentration 1.5%) [g],Living Biomass (mean ± s.d.) (Salvinia molesta; total concentration 2.0%) [g],A. caroliniana eliminated (Azolla caroliniana) [%],survival and damage of S. molesta plants (S. molesta [2]; [3]),effect on growth of dihuang (dihuang),further results
"O=C(O)c1ccc(O)c(O)c1 [3,4-dihydroxybenzoic acid]",type I only,76.5,17.1,9.2,14.3,5.8,100,killed all of the plants and no new growth was observed,inhibit some growth,"pest or weed control at 1 % (S. molesta [1]; read-out: Inhibition (%) Lower leaf Application, 10 μL of 1% solution per blade, lower surface): 72.2%; pest or weed control at 1 % (S. molesta [1]; read-out: Inhibition (%) Upper leaf Application, 10 μL of 1% solution per blade, upper surface): > 85%; mutation induction in S. molesta (S. molesta [2]; 0.25, 0.5, and 1%): induced small leaf mutations; induced new growth type (S. molesta [2]; 0.5% or 1%, six weeks of observation): the new plants remained as type I"
O=C(O)c1ccc(O)cc1 [4-Hydroxybenzoic acid],type I only,85.5,20.1,4.3,2.3,0,100,died and showed no new growth,inhibit some growth,"S. molesta plants eliminated (Salvinia molesta; 2% concentration): 100%; pest or weed control at 1 % (S. molesta [1]; 10 μL of 1% solution per blade, lower surface, read-out: Inhibition (%) Lower leaf Application): 100%; pest or weed control at 1 % (S. molesta [1]; 10 μL of 1% solution per blade, upper surface, read-out: Inhibition (%) Upper leaf Application): > 85%; survival and damage of S. molesta plants (S. molesta [2]; 0.125% or lower concentrations, six weeks): no significant damage; survival and damage of S. molesta plants (S. molesta [2]; 0.25% solution, 10 mL spray on nine plants, first week): killed all floating leaves of the small plants (type I and II) and partially injured floating leaves of the type III plants; induced new growth type (S. molesta [2]; 0.25% solution, six weeks): Seven plants developed cupped floating leaves (type II); survival and damage of S. molesta plants (S. molesta [2]; 0.5% solution, 10 mL spray on nine plants): killed almost all floating leaves of the nine treated plant within a week; induced new growth type (S. molesta [2]; 0.5% solution, six weeks): all other newly emerged plants from axillary buds remained as type I; survival and damage of S. molesta plants (S. molesta [2]; 1% solution, 10 mL spray on nine plants (types I, II, III)): all six type I or II plants were dead without new growth within two days of the treatment; induced new growth type (S. molesta [2]; 1% solution, end of second week): three small plants (type I) emerged from the axillary buds of the type III plants"
